Biological target: T1, CYP4A (Homo sapiens, UniProt Q02928)
T1 construct: host or cells: bactosome, i.e. bacterial membrane preparation (own knowledge of the term)
T1 sequence (Q02928 5-519): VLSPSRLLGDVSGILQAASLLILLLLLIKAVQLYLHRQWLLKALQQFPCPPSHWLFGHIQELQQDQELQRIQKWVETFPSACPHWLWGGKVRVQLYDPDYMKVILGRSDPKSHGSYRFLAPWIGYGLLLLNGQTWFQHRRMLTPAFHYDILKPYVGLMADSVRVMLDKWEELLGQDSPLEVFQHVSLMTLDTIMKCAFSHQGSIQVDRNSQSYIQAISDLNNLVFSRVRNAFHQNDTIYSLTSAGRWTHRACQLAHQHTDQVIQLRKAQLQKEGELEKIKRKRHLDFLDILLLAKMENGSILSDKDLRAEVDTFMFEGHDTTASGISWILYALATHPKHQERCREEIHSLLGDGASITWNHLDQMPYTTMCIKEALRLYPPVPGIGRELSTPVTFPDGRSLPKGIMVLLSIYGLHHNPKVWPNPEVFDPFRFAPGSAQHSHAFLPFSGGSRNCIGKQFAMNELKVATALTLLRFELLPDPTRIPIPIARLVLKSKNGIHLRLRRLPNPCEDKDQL
Assay: CYP4A enzyme assay (Luciferin-ME luminescence, CYP4A bactosome)
Format: biochemical
Details: compound concentration 5 μM; 25%-50%; read-out: % Inhibition 25%-50%
Method: A commercially available reagent was used for the reagent used in the experiment, and it was manufactured and used if necessary. The device used for activity measurement was EnVision of PerkinElmer or SpectraMax of MOLECULAR DEVICES.
First, CYP4A bactosome and synthetic compound (5 μM) were mixed in assay buffer (100 mM KPO4, 0.1% BSA, 1 mM DTT) in a 384-well plate (white opaque ploystyrene nontreated flat-bottom well), and then reacted at room temperature for 15 minutes. After adding 5 mM Luciferin-ME and NADPH Regeneration system (10× sol.A, 20× sol.B in assay buffer, Cat. Number: V865B, Promega), leave it at room temperature for 30 minutes to allow the CYP4A reaction to occur sufficiently, by adding the Luciferin Detection reagent, the CYP4A reaction was finished, luminescence reaction was induced, and the reaction was carried out at room temperature for 15 minutes. The degree of inhibition of CYP4A activity was measured by comparing the luminescence values from each well with a microplate reader.

| inhibition at 5 µM | Compound |
| --- | --- |
| 25 to 50% | Cc1cc(N2CCN(C(=O)C3CCCN(S(=O)(=O)c4c(F)c(F)c(F)c(F)c4F)C3)CC2)c2ccccc2n1 (centres unmarked) [Formula 30, (4-(2-methylquinolin-4-yl)piperazin-1-yl) (1-(perfluorophenylsulfonyl)piperidin-3-yl) methanone] |
| 25 to 50% | Cc1cc(N2CCN(C(=O)C3CCCN(S(=O)(=O)c4ccccc4F)C3)CC2)c2ccccc2n1 (centres unmarked) [Formula 33, (1-(2-fluorophenylsulfonyl)piperidin-3-yl) (4-(2-methylquinolin-4-yl)piperazin-1-yl) methanone] |
| 25 to 50% | Cc1cc(N2CCN(C(=O)C3CCCN(S(=O)(=O)c4ccc(Oc5ccccc5)cc4)C3)CC2)c2ccccc2n1 (centres unmarked) [Formula 34, (4-(2-methylquinolin-4-yl)piperazin-1-yl) (1-(4-phenoxyphenylsulfonyl)piperidin-3-yl) methanone] |
| 25 to 50% | COC(=O)c1ccc(S(=O)(=O)N2CCCC(C(=O)N3CCN(c4cc(C)nc5ccccc45)CC3)C2)cc1 (centres unmarked) [Formula 37, methyl 4-(3-(1-(2-methylquinolin-4-yl)piperazine-4-carbonyl)piperidin-1-ylsulfonyl)benzoate] |
| 25 to 50% | Cc1cc(N2CCN(C(=O)C3CCCN(S(=O)(=O)c4ccc(Br)cc4)C3)CC2)c2ccccc2n1 (centres unmarked) [Formula 40, (1-((4-bromophenyl)sulfonyl)piperidin-3-yl) (4-(2-methylquinolin-4-yl)piperazin-1-yl)methanone] |

Same assay, conditions: compound concentration 5 μM; 75% or more; read-out: % Inhibition 75% or more

| inhibition at 5 µM | Compound |
| --- | --- |
| ≥ 75% | Cc1cc(N2CCN(C(=O)C3CCCN(S(=O)(=O)c4ccc(N(C)C)cc4)C3)CC2)c2ccccc2n1 (centres unmarked) [Formula 31, (1-(4-(dimethylamino)phenylsulfonyl)piperidin-3-yl) (4-(2-methylquinolin-4-yl)piperazin-1-yl) methanone] |
| ≥ 75% | Cc1cc(N2CCN(C(=O)C3CCCN(S(=O)(=O)c4ccc(O)cc4)C3)CC2)c2ccccc2n1 (centres unmarked) [Formula 32, (1-(4-hydroxyphenylsulfonyl)piperidin-3-yl) (4-(2-methylquinolin-4-yl)piperazin-1-yl) methanone] |
| ≥ 75% | Cc1cc(N2CCN(C(=O)C3CCCN(S(=O)(=O)c4ccc(-c5ccccc5)cc4)C3)CC2)c2ccccc2n1 (centres unmarked) [Formula 38, (4-(2-methylquinolin-4-yl)piperazin-1-yl) (1-(4-phenylbenzenesulfonyl)piperidin-3-yl) methanone] |
| ≥ 75% | O=C(C1CCCN(S(=O)(=O)c2ccc(F)cc2)C1)N1CCN(c2ccnc3cc(F)ccc23)CC1 (centres unmarked) [Formula 42, (1-((4-fluorophenyl)sulfonyl)piperidin-3-yl) (4-(7-fluoroquinolin-4-yl)piperazin-1-yl) methanone] |
| ≥ 75% | O=C(C1CCCN(S(=O)(=O)c2ccc(O)cc2)C1)N1CCN(c2ccnc3cc(F)ccc23)CC1 (centres unmarked) [Formula 43, (4-(7-fluoroquinolin-4-yl)piperazin-1-yl) (1-((4-hydroxyphenyl)sulfonyl)piperidin-3-yl) methanone] |
| ≥ 75% | CC(=O)Nc1ccc(S(=O)(=O)N2CCCC(C(=O)N3CCN(c4ccnc5cc(F)ccc45)CC3)C2)cc1 (centres unmarked) [Formula 45, N-(4-(3-(1-(7-fluoroquinolin-4-yl)piperazine-4-carbonyl)piperidin-1-ylsulfonyl)phenyl) acetamide] |
| ≥ 75% | CC(=O)Nc1ccc(S(=O)(=O)N2CCC[C@@H](C(=O)N3CCN(c4ccnc5cc(F)ccc45)CC3)C2)cc1 [Formula 46, (R)—N-(4-(3-(1-(7-fluoroquinolin-4-yl)piperazine-4-carbonyl)piperidin-1-ylsulfonyl)phenyl) acetamide] |
| ≥ 75% | CC(=O)Nc1ccc(S(=O)(=O)N2CCC[C@H](C(=O)N3CCN(c4ccnc5cc(F)ccc45)CC3)C2)cc1 [Formula 47, (S)—N-(4-(3-(1-(7-fluoroquinolin-4-yl)piperazine-4-carbonyl)piperidin-1-ylsulfonyl)phenyl) acetamide] |
| ≥ 75% | O=C(C1CCCN(S(=O)(=O)c2ccc([N+](=O)[O-])cc2)C1)N1CCN(c2ccnc3cc(F)ccc23)CC1 (centres unmarked) [Formula 50, (4-(7-fluoroquinolin-4-yl)piperazin-1-yl) (1-(4-nitrophenylsulfonyl)piperidin-3-yl) methanone] |
| ≥ 75% | O=C(C1CCCN(S(=O)(=O)c2cccc([N+](=O)[O-])c2)C1)N1CCN(c2ccnc3cc(F)ccc23)CC1 (centres unmarked) [Formula 51, (4-(7-fluoroquinolin-4-yl)piperazin-1-yl) (1-(3-nitrophenylsulfonyl)piperidin-3-yl) methanone] |
| ≥ 75% | CCN(CC)c1ccc(S(=O)(=O)N2CCCC(C(=O)N3CCN(c4ccnc5cc(F)ccc45)CC3)C2)cc1 (centres unmarked) [Formula 52, (1-(4-(diethylamino)phenylsulfonyl)piperidin-3-yl) (4-(7-fluoroquinolin-4-yl)piperazin-1-yl) methanone] |
| ≥ 75% | COc1ccc(S(=O)(=O)N2CCCC(C(=O)N3CCN(c4ccnc5cc(F)ccc45)CC3)C2)cc1 (centres unmarked) [Formula 53, (4-(7-fluoroquinolin-4-yl)piperazin-1-yl) (1-(4-methoxyphenylsulfonyl)piperidin-3-yl) methanone] |
| ≥ 75% | CC(=O)c1ccc(S(=O)(=O)N2CCCC(C(=O)N3CCN(c4ccnc5cc(F)ccc45)CC3)C2)cc1 (centres unmarked) [Formula 54, 1-(4-(3-(1-(7-fluoroquinolin-4-yl)piperazine-4-carbonyl)piperidin-1-ylsulfonyl)phenyl) ethanone] |
| ≥ 75% | O=C(C1CCCN(S(=O)(=O)c2ccc(-c3ccccc3)cc2)C1)N1CCN(c2ccnc3cc(F)ccc23)CC1 (centres unmarked) [Formula 55, (4-(7-fluoroquinolin-4-yl)piperazin-1-yl) (1-(4-phenylbenzenesulfonyl)piperidin-3-yl) methanone] |
| ≥ 75% | O=C(C1CCCN(S(=O)(=O)c2ccc(Br)cc2)C1)N1CCN(c2ccnc3cc(F)ccc23)CC1 (centres unmarked) [Formula 56, (1-(4-bromophenylsulfonyl)piperidin-3-yl) (4-(7-fluoroquinolin-4-yl)piperazin-1-yl)methanone] |
| 0% | O=C([C@@H]1CCCN(S(=O)(=O)c2ccc(Br)cc2)C1)N1CCN(c2ccnc3cc(F)ccc23)CC1 [Formula 57, (R)-(1-(4-bromophenylsulfonyl)piperidin-3-yl) (4-(7-fluoroquinolin-4-yl)piperazin-1-yl) methanone] |
| ≥ 75% | COc1cccc(S(=O)(=O)N2CCCC(C(=O)N3CCN(c4ccnc5cc(F)ccc45)CC3)C2)c1 (centres unmarked) [Formula 58, (4-(7-fluoroquinolin-4-yl)piperazin-1-yl) (1-(3-methoxyphenylsulfonyl)piperidin-3-yl) methanone] |
| ≥ 75% | CC(=O)Nc1cccc(S(=O)(=O)N2CCC[C@@H](C(=O)N3CCN(c4ccnc5cc(F)ccc45)CC3)C2)c1 [Formula 59, (R)—N-(3-(3-(1-(7-fluoroquinolin-4-yl)piperazine-4-carbonyl)piperidin-1-ylsulfonyl)phenyl) acetamide] |
| ≥ 75% | O=C([C@@H]1CCCN(S(=O)(=O)c2cccc([N+](=O)[O-])c2)C1)N1CCN(c2ccnc3cc(F)ccc23)CC1 [Formula 60, (R)-(4-(7-fluoroquinolin-4-yl)piperazin-1-yl) (1-(3-nitrophenylsulfonyl)piperidin-3-yl) methanone] |
| ≥ 75% | CN(C)c1cccc(S(=O)(=O)N2CCC[C@@H](C(=O)N3CCN(c4ccnc5cc(F)ccc45)CC3)C2)c1 [Formula 61, (R)-(1-(3-(dimethylamino)phenylsulfonyl)piperidin-3-yl) (4-(7-fluoroquinolin-4-yl)piperazin-1-yl) methanone] |

Same assay, conditions: compound concentration 5 μM; '50%-75%'; read-out: % Inhibition 50%-75%

| inhibition at 5 µM | Compound |
| --- | --- |
| 50 to 75% | Cc1cc(N2CCN(C(=O)C3CCCN(S(=O)(=O)c4ccc(C#N)cc4)C3)CC2)c2ccccc2n1 (centres unmarked) [Formula 35, 4-(3-(1-(2-methylquinolin-4-yl)piperazine-4-carbonyl)piperidin-1-ylsulfonyl)benzonitrile] |
| 50 to 75% | Cc1cc(N2CCN(C(=O)C3CCCN(S(=O)(=O)c4ccc(S(C)(=O)=O)cc4)C3)CC2)c2ccccc2n1 (centres unmarked) [Formula 36, (4-(2-methylquinolin-4-yl)piperazin-1-yl) (1-(4-(methylsulfonyl)phenylsulfonyl)piperidin-3-yl) methanone] |
| 50 to 75% | COc1cccc(S(=O)(=O)N2CCCC(C(=O)N3CCN(c4cc(C)nc5ccccc45)CC3)C2)c1 (centres unmarked) [Formula 39, (1-(3-methoxyphenylsulfonyl)piperidin-3-yl) (4-(2-methylquinolin-4-yl)piperazin-1-yl) methanone] |
| 50 to 75% | O=C(C1CCCN(S(=O)(=O)c2ccccc2)C1)N1CCN(c2ccnc3cc(F)ccc23)CC1 (centres unmarked) [Formula 41, (4-(7-fluoroquinolin-4-yl)piperazin-1-yl) (1-(phenylsulfonyl)piperidin-3-yl) methanone] |

Reference: US12479821B2 (MBD CO., LTD., priority 2019, dated 2025)
